Assay results from US5064637A, “Substituted sulfonamide derivatives which inhibit allergic reactions” (Board of Regents, The University of Texas System, priority 1989, dated 1991).
Each block holds one compound with its values, some of them ahead of it.

Columns and labels:
IgG to SMX [1] = assay: Example 1: inhibition of IgG binding, ELISA, serum preincubated overnight with inhibitor; design: species or system human; details: for Reduction in percent binding: 20 microliter of 10 mg/ml inhibitor to 180 microliter serum, overnight; for inhibition of IgG binding (in words): serum dilutions 1:40, 1:80, 1:160
Description: This experiment was performed to determine the amount of binding inhibition achieved with various inhibitory agents. […] The experiments were performed in 96-well microtiter plates having 8 rows
designated A-H, and 12 columns designated 1-12. Each well of the microtiter plate was given a designation in accordance with the above grid system. All samples were diluted in phosphate buffered saline (PBS) to the designated dilution factor. The serum dilution levels used in this study were 1:40, 1:80 and 1:160, v/v.
A sample of each serum dilution was preincubated overnight with a IgG binding inhibitor selected from Table 2. A 2o-lambda (mioroliter) volume from a lo mg/ml solution of the selected inhibitor was added to a 180 lambda volume of the particular serum sample.
One hundred milligrams (I00 mg) of each of the listed compounds was weighed out and added to a 10 ml volume of 100% PBS so as to achieve a final concentration of 10 mg/ml by weight of the inhibitor.
In accordance with the aforedescribed system, the wells at Row A, columns 1 and 2 of the microtiter plate, received 100 microliters of phosphate buffered saline as a blank. Row A, columns 3 and 4, received normal serum diluted 1:40 in PBS, and served as a negative control. Row A, columns 5 and 6 received -00 microliters of a positive serum (i.e., serum sample positive for IgG to SMX) diluted -:40. Row A, columns 7 and 8, received positive serum diluted at 1:80. Similarly, Row A, columns 9 and 10, received 100 microliters positive serum diluted at 1:160. […] The completed microtiter plate consisted of the following sample distribution (see Table 3).
The present invention was tested using a modified ELISA assay. The specific ELISA used employs the following reagents, standards and antibodies.

IgG to SMX [2] = assay: Example 3: inhibition studies, ELISA, serum preincubated overnight with inhibitor; format: binding, human; details: serum 1:40
Description: This study was conducted to confirm results on binding inhibition obtained in Example 2. Two positive serums (i.e., positive for IgG to SMX) were employed, including the positive serum used in Examples 1 and 2. PBS (phosphate buffered saline) and a normal serum were also tested in this study.
All serum used were at a 1:40 final dilution. Serum was diluted in PBS.
Several binding inhibitors at various dilutions were used. The particular inhibitors and the dilutions thereof examined appear in Table 8, along with their numerical designations.
Positive serum samples were first preincubated overnight with 50 microliter of the numerically designated inhibitors (10 mg/ml inhibitor solution - See Example I).
A standard ELISA assay was conducted using a 96 well microtiter plate as described for Example I. Row A, wells 3 and 4, received normal serum diluted 1:40 in PBS. Other wells received 10 microliter of positive serum A (Row A, well 5 through Row F, well 6) or positive serum B (Row F, well 7 through Row H, well 6) at a 1:40 dilution in PBS.
That percent binding inhibition obtained for each sample appears at Table 10.

Ig to SMX = assay: Hapten inhibition of Ig binding to SMX-HSA (RAST for IgE, ELISA for IgG, IgA, IgM); design: species or system human; details: free inhibitor, specificity check
Description: SMX-HSA was used in radioallergoasorbent test (RAST) assays for IgE and ELISA assays for IgG, IgA, and IgM.

[3] = system: IgE to SM (N^4 -SMX determinants); details: cited from earlier work
IgG to SMX [4] = assay: Example 2: hapten inhibition of IgG binding, ELISA, no preincubation; design: species or system human; details: final serum dilution 1:80
Description: The assay was set up using a 96 well microtiter plate. None of the serum samples were preincubated with inhibitor. Serum used was positive (+) for IgG to SMX, and was used at a final dilution of […] for all wells.
A variety of binding inhibitors were employed at varying concentrations.
A 50 microliter volume of each numerically designated inhibitor was added each well of the plate. A 50 microliter volume of serum (1:40 dilution) positive to IgG to SMX was then added to each well. The final dilution of serum in each was then 1:80.
The microtiter plate was then shaken slightly to mix the contents of each well and then the standard ELISA assay was performed. The plate was then allowed to incubate for 2 hours at room temperature. The plates were then washed and the OD readings taken for each well.
Percent inhibition was then calculated for each sample on the basis of decrease in OD.

- Reduction in percent binding (IgG to SMX [1]; serum dilution 1:40): 28%
- Reduction in percent binding (IgG to SMX [1]; serum dilution 1:80): 50%
- Reduction in percent binding (IgG to SMX [1]; serum dilution 1:160): 42%
Compound: Cc1cc(NS(=O)(=O)c2ccc(N=Nc3cc(CC(N)C(=O)O)ccc3O)cc2)no1 (centres unmarked) [Inhibitor 3]
- % Reduction in OD (IgG to SMX [2]; inhibitor 0.1 mg/ml (Table 8)): 32%

Compound: CC1(C)SC(C(NC(=O)Cc2ccccc2)C(=O)NCc2ccccc2)NC1C(=O)O (centres unmarked) [Inhibitor 28]
- % Reduction in OD (IgG to SMX [2]; inhibitor 10 mg/ml (Table 8), serum A or B not stated): 0%

Compound: Cc1cc(NS(=O)(=O)c2ccc(N)cc2)no1 [SMX, Sulfamethoxazole, reference compound]
- inhibition of antibody binding to SMX-HSA (in words) (Ig to SMX): also inhibited binding, but were usually less efficient
- inhibition of IgE binding of one highly reactive serum (in words) [3]: significantly inhibited

- % Inhibition (IgG to SMX [4]; inhibitor 10 mg/ml): 32%
Compound: COC(=O)C(N)Cc1ccc(O)c(N=Nc2ccc(S(=O)(=O)Nc3cc(C)on3)cc2)c1 (centres unmarked) [SMX-Tyrosine Methyl ester]
- inhibition of IgG binding (in words) (IgG to SMX [1]): considerable inhibition at the 1:40 serum dilution only

- inhibition of IgG binding (in words) (IgG to SMX [1]): significantly inhibit binding
- % Inhibition (IgG to SMX [4]; inhibitor 0.1 mg/ml): 51%
- % Inhibition (IgG to SMX [4]; inhibitor 0.3 mg/ml): 54%
- % Inhibition (IgG to SMX [4]; inhibitor 1 mg/ml): 57%
- % Inhibition (IgG to SMX [4]; inhibitor 3 mg/ml): 70%
- % Inhibition (IgG to SMX [4]; inhibitor 10 mg/ml): 59%
Compound: Cc1cc(NS(=O)(=O)c2ccc(N=Nc3cc(CC(N)C(=O)O)ccc3O)cc2)no1 (centres unmarked) [SMX-Tyrosine]

Compound: COc1cc(Cc2cnc(N)nc2N)cc(OC)c1OC [Trimethoprim]
- inhibition of IgE binding of one highly reactive serum (in words) [3]: not

Compound: Cc1ccnc(NS(=O)(=O)c2ccc(N)cc2)n1 [sulfamerazine]
- inhibition of IgE binding of one highly reactive serum (in words) [3]: significantly inhibited

Compound: Cc1nnc(NS(=O)(=O)c2ccc(N)cc2)s1 [sulfamethizole]
- inhibition of IgE binding of one highly reactive serum (in words) [3]: significantly inhibited

Compound: Nc1ccc(S(=O)(=O)O)cc1 [sulfanilic acid]
- inhibition of IgE binding of one highly reactive serum (in words) [3]: not

- inhibition of antibody binding to SMX-HSA (in words) (Ig to SMX; listed as N^4 -sulfamethoxazoyl histidine): among the most active
- inhibition of antibody binding to SMX-HSA (in words) (Ig to SMX; listed as SMX-HD): inhibition of binding
- % Inhibition (IgG to SMX [4]; inhibitor 10 mg/ml): 54%
Compound: N^4 -sulfamethoxazoyl-L-histidine [SMX-Histidine]
- inhibition of IgG binding (in words) (IgG to SMX [1]): significant reduction in binding at the 1:80 and I:160 serum dilution, but none at the 1:40 dilution

Compound: N^4 -sulfamethoxazoyl-poly-L-tyrosine [SMX-poly-L-tyrosine]
- inhibition of IgG binding (in words) (IgG to SMX [1]): significantly inhibit binding
- % Inhibition (IgG to SMX [4]; inhibitor 0.1 mg/ml): 0%
- % Inhibition (IgG to SMX [4]; inhibitor 0.3 mg/ml): 2%
- % Inhibition (IgG to SMX [4]; inhibitor 1 mg/ml): 24%
- % Inhibition (IgG to SMX [4]; inhibitor 3 mg/ml): 46%
- % Inhibition (IgG to SMX [4]; inhibitor 10 mg/ml): 50%

Compound: SMX-Imidazole
- % Inhibition (IgG to SMX [4]; inhibitor 10 mg/ml): 61%

Compound: SMX-Lysine
- % Inhibition (IgG to SMX [4]; inhibitor 10 mg/ml): 51%

Compound: SMX-Tryptophan
- % Inhibition (IgG to SMX [4]; inhibitor 10 mg/ml): 52%

Compound: Sulfamerazine-Histidine
- % Inhibition (IgG to SMX [4]; inhibitor 10 mg/ml): 35%

Compound: Sulfamethizole-histidine [Sulfamethazole-histidine]
- % Inhibition (IgG to SMX [4]; inhibitor 10 mg/ml): 7%

Compound: Sulfanilic-Histidine
- % Inhibition (IgG to SMX [4]; inhibitor 10 mg/ml): 60%
